*1 amine or outer side, *2 acyl side, *3 side chain or, on linkers, in order; H or OH if unused. Where a SMILES comes first, the peptide text is derived from it. Bridges are numbered along the chain shown (N, C = ends). [ ]: non-standard residue; d: D form. The star is where a group is joined. ξ: configuration not given here. Phe(3-CF3) = N[C@@H](Cc1cccc(C(F)(F)F)c1)C(=O)O; Phe(4-COOH) = N[C@@H](Cc1ccc(C(=O)O)cc1)C(=O)O; Bip = N[C@@H](Cc1ccc(-c2ccccc2)cc1)C(=O)O; Phe(3-Me) = Cc1cccc(C[C@H](N)C(=O)O)c1; γGlu = O=C(O)[C@H](CCC(=O)[*:2])N[*:1]; NH(CH2)12COOH = O=C(O)CCCCCCCCCCCCN*; Cyclopropanecarbonyl = O=C(C1CC1)*; Val(3-OH) = CC(C)(O)[C@H](N)C(=O)O; hArg = N=C(N)NCCCC[C@H](N)C(=O)O; 4Pal = N[C@@H](Cc1ccncc1)C(=O)O; Aad = N[C@@H](CCCC(=O)O)C(=O)O; Cha = N[C@@H](CC1CCCCC1)C(=O)O; Ile(3ξ) = CCC(C)[C@H](N)C(=O)O; Thr(3ξ) = CC(O)[C@H](N)C(=O)O; 12Ado = NCCCCCCCCCCCC(=O)O; NMeS = CN[C@@H](CO)C(=O)O; Carboxymethyl = O=C(O)C*; NMeA = CN[C@@H](C)C(=O)O; Orn = NCCC[C@H](N)C(=O)O; Aun = NCCCCCCCCCCC(=O)O; Dab = NCC[C@H](N)C(=O)O; AEEA = NCCOCCOCC(=O)O

For one assay, the target named is T1, PD-1/PD-L1 interaction (PE-labeled human PD-L1-Ig binding to Jurkat cell line over-expressing human PD-1) (Homo sapiens, UniProt Q15116).
T1 construct: expressed in transfected cells; host or cells: Jurkat
T1 sequence (Q15116 25-288): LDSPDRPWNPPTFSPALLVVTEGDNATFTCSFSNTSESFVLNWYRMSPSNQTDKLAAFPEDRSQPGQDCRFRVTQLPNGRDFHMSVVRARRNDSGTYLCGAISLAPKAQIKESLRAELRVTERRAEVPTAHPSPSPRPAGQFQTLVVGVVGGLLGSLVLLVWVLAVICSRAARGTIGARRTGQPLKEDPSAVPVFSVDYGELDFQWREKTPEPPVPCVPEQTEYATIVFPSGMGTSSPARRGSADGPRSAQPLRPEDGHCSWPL
Nature of the assay: Jurkat-PD-1 Cell Binding High-Content Screening Assay (CBA). The following applies: Jurkat-hPD-1 cells, PE-labeled PD-L1-Ig 20 nM final; read-out: Jurkat HPD1 PDL1 IC50. A digest of the protocol:
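Cells 8×10^3/well, DMEM + 10% FCS; cpd 2 h, 37 °C; PE–PD-L1-Ig 20 nM final, 1 h; PFA fix + Hoechst 33342, 3× dPBS wash; high-content imager.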
Regarding `Cc1cccc(C[C@@H]2NC(=O)[C@H](CC(=O)O)NC(=O)[C@H](Cc3ccc(C(=O)O)cc3)NC(=O)[C@H](CCN)NC(=O)CSC[C@@H](C(=O)N[C@@H](CCN)C(=O)NCCCCCCCCCCC(=O)O)NC(=O)[C@H](CO)NC(=O)[C@H](C(C)(C)O)NC(=O)[C@H](CC3CCCCC3)NC(=O)[C@H](CCN)NC(=O)[C@@H](CC(C)C)NC(=O)[C@H](C)N(C)C(=O)[C@H](Cc3ccc(OCC(=O)O)cc3)NC(=O)[C@H](Cc3ccc(-c4ccccc4)cc3)NC(=O)[C@H](CCCC(=O)O)NC2=O)c1` [Example 1298] ({CH2CO}-[Dab][Phe(4-COOH)]D[Phe(3-Me)][Aad][Bip]Y(Carboxymethyl)[NMeA][dL][Dab][Cha][Val(3-OH)]SC[Dab][Aun]-OH; thioether N-14), the IC50 is 16.4 nM.
In the case of `Cc1cccc(C[C@@H]2NC(=O)[C@H](CC(=O)O)NC(=O)[C@H](Cc3ccc(C(=O)O)cc3)NC(=O)[C@H](Cc3ccc(OCC(=O)O)cc3)NC(=O)CSC[C@@H](C(=O)NCCOCCOCC(=O)NCCCCCCCCCCC(=O)O)NC(=O)[C@H](CCCNC(=N)N)NC(=O)[C@H](C(C)C)NC(=O)[C@H](CC3CCCCC3)NC(=O)[C@H](CCN)NC(=O)[C@@H](CC(C)C)NC(=O)[C@H](CO)N(C)C(=O)[C@H](C(C)C)NC(=O)[C@H](Cc3ccc(-c4ccccc4)cc3)NC(=O)[C@H](CC(C)C)NC2=O)c1` [Example 2278] ({CH2CO}-Y(Carboxymethyl)[Phe(4-COOH)]D[Phe(3-Me)]L[Bip]V[NMeS][dL][Dab][Cha]VRC[AEEA][Aun]-OH; thioether N-14), the IC50 is 34.2 nM.
The same measure, in the same setting: then `CC(C)C[C@H]1NC(=O)[C@H](C)N(C)C(=O)[C@H](C(C)C)NC(=O)[C@H](Cc2ccc(-c3ccccc3)cc2)NC(=O)[C@H](C(C)C)NC(=O)[C@H](Cc2c[nH]c3ccccc23)NC(=O)[C@H](CC(=O)O)NC(=O)[C@H](CCCCNC(=N)N)NC(=O)[C@H](Cc2ccc(OCC(=O)O)cc2)NC(=O)CSC[C@@H](C(=O)N[C@@H](CCCCN)C(=O)NCCOCCOCC(=O)NCCCCCCCCCCC(=O)O)NC(=O)[C@H](CO)NC(=O)[C@H](C(C)C)NC(=O)[C@H](CC2CCCCC2)NC(=O)[C@H](CCN)NC1=O` [Example 2103] ({CH2CO}-Y(Carboxymethyl)[hArg]DWV[Bip]V[NMeA][dL][Dab][Cha]VSCK[AEEA][Aun]-OH; thioether N-14), with 29.6 nM.
The same measure, in the same setting: the value for `Cc1cccc(C[C@@H]2NC(=O)[C@H](CC(=O)O)NC(=O)[C@H](Cc3ccc(OCC(=O)O)cc3)NC(=O)[C@H](C(C)O)NC(=O)CSC[C@@H](C(=O)NCCOCCOCC(=O)NCCCCCCCCCCC(=O)O)NC(=O)[C@H](C(C)O)NC(=O)[C@H](C(C)C)NC(=O)[C@H](CC3CCCCC3)NC(=O)[C@H](CCN)NC(=O)[C@@H](CC(C)C)NC(=O)[C@H](C)N(C)C(=O)[C@H](Cc3ccc(OCC(=O)O)cc3)NC(=O)[C@H](Cc3ccc(-c4ccccc4)cc3)NC(=O)[C@H](Cc3ccc(C(=O)O)cc3)NC2=O)c1` (stereo partly drawn) [Example 2343] ({CH2CO}-[Thr(3ξ)]Y(Carboxymethyl)D[Phe(3-Me)][Phe(4-COOH)][Bip]Y(Carboxymethyl)[NMeA][dL][Dab][Cha]V[Thr(3ξ)]C[AEEA][Aun]-OH; thioether N-14) was 51.7 nM.
On to `COC[C@@H]1NC(=O)CSC[C@@H](C(=O)N[C@@H](CCN)C(=O)NCCOCCOCC(=O)N[C@@H](CCC(=O)NCCOCCOCC(=O)NCCCCCCCCCCCCC(=O)O)C(=O)O)NC(=O)[C@H](CCC(=O)O)NC(=O)[C@H](C(C)C)NC(=O)[C@H](CC2CCCCC2)NC(=O)[C@H](CCN)NC(=O)[C@@H](CC(C)C)NC(=O)[C@H](C)N(C)C(=O)[C@H](CCC(N)=O)NC(=O)[C@H](Cc2ccc(-c3ccccc3)cc2)NC(=O)[C@H](Cc2ccc(C(=O)O)cc2)NC(=O)[C@H](Cc2cccc(C(F)(F)F)c2)NC(=O)[C@H](CC(=O)O)NC(=O)[C@H](Cc2ccc(OCC(=O)O)cc2)NC1=O` [Example 1163] ({CH2CO}-S(Me)Y(Carboxymethyl)D[Phe(3-CF3)][Phe(4-COOH)][Bip]Q[NMeA][dL][Dab][Cha]VEC[Dab][AEEA][γGlu][AEEA]-{NH(CH2)12COOH}; thioether N-14), for which the IC50 was found to be 15.2 nM.
Take `Cc1cccc(C[C@@H]2NC(=O)[C@H](CC(=O)O)NC(=O)[C@H](Cc3ccc(OCC(=O)O)cc3)NC(=O)[C@H](Cc3ccncc3)NC(=O)CSC[C@@H](C(=O)N[C@@H](CCCN)C(=O)N[C@@H](CO)C(=O)NCCCCCCCCCCCC(=O)O)NC(=O)[C@H](C(C)O)NC(=O)[C@H](C(C)C)NC(=O)[C@H](CC3CCCCC3)NC(=O)[C@H](CCN)NC(=O)[C@@H](CC(C)C)NC(=O)[C@H](C)N(C)C(=O)[C@H](CCCNC(=O)C3CC3)NC(=O)[C@H](Cc3ccc(-c4ccccc4)cc3)NC(=O)[C@H](Cc3ccc(O)cc3)NC2=O)c1` (stereo partly drawn) [Example 2403] ({CH2CO}-[4Pal]Y(Carboxymethyl)D[Phe(3-Me)]Y[Bip][Orn](Cyclopropanecarbonyl)[NMeA][dL][Dab][Cha]V[Thr(3ξ)]C[Orn]S[12Ado]-OH; thioether N-14): the IC50 came to 47.9 nM.
Same read-out and setting: then `Cc1cccc(C[C@@H]2NC(=O)[C@H](CC(=O)O)NC(=O)[C@H](Cc3ccc(O)cc3)NC(=O)[C@H](CC(N)=O)NC(=O)CSC[C@@H](C(=O)N[C@@H](CCN)C(=O)NCCCCCCCCCCC(=O)O)NC(=O)[C@H]([C@@H](C)O)NC(=O)[C@H](C(C)C)NC(=O)[C@H](CC3CCCCC3)NC(=O)[C@H](CCN)NC(=O)[C@@H](CC(C)C)NC(=O)[C@H](C)N(C)C(=O)[C@H](Cc3ccc(O)cc3)NC(=O)[C@H](Cc3ccc(-c4ccccc4)cc3)NC(=O)[C@H](C(C)C)NC2=O)c1` [Example 1321] ({CH2CO}-NYD[Phe(3-Me)]V[Bip]Y[NMeA][dL][Dab][Cha]VTC[Dab][Aun]-OH; thioether N-14), with 142 nM.

Still in this assay, the particulars now being: PE-labeled PD-L1-Ig 20 nM final, Jurkat-hPD-1 cells; read-out: Jurkat HPD1 PDL1 IC50.
Regarding `CCC(C)[C@@H]1NC(=O)[C@H](Cc2ccc(-c3ccccc3)cc2)NC(=O)[C@H](C(C)C)NC(=O)[C@H](Cc2c[nH]c3ccccc23)NC(=O)[C@H](CC(=O)O)NC(=O)[C@H](Cc2ccc(OCC(=O)O)cc2)NC(=O)[C@H](Cc2cnc[nH]2)NC(=O)CSC[C@@H](C(=O)N[C@@H](CCN)C(=O)NCCOCCOCC(=O)NCCCCCCCCCCC(=O)O)NC(=O)[C@H](CCC(=O)O)NC(=O)[C@H](C(C)(C)O)NC(=O)[C@H](CC2CCCCC2)NC(=O)[C@H](CCN)NC(=O)[C@@H](CC(C)C)NC(=O)[C@H](C)N(C)C1=O` (stereo partly drawn) [Example 2591] ({CH2CO}-HY(Carboxymethyl)DWV[Bip][Ile(3ξ)][NMeA][dL][Dab][Cha][Val(3-OH)]EC[Dab][AEEA][Aun]-OH; thioether N-14), the IC50 is 3.1 nM.
For the compound `Cc1cccc(C[C@@H]2NC(=O)[C@H](CC(=O)O)NC(=O)[C@H](Cc3ccc(OCC(=O)O)cc3)NC(=O)[C@H](C(C)O)NC(=O)CSC[C@@H](C(=O)N[C@@H](CCN)C(=O)NCCOCCOCC(=O)NCCCCCCCCCCC(=O)O)NC(=O)[C@H](CCC(=O)O)NC(=O)[C@H](C(C)(C)O)NC(=O)[C@H](CC3CCCCC3)NC(=O)[C@H](CCN)NC(=O)[C@@H](CC(C)C)NC(=O)[C@H](C)N(C)C(=O)[C@H](Cc3ccc(OCC(=O)O)cc3)NC(=O)[C@H](Cc3ccc(-c4ccccc4)cc3)NC(=O)[C@H](Cc3ccc(OCC(=O)O)cc3)NC2=O)c1` (stereo partly drawn) [Example 2508] ({CH2CO}-[Thr(3ξ)]Y(Carboxymethyl)D[Phe(3-Me)]Y(Carboxymethyl)[Bip]Y(Carboxymethyl)[NMeA][dL][Dab][Cha][Val(3-OH)]EC[Dab][AEEA][Aun]-OH; thioether N-14), the IC50 is 40.6 nM.

The record behind these values is US20260070945A1, “MACROCYCLIC IMMUNOMODULATORS” (Bristol-Myers Squibb Company, priority 2022, published 2026).
